The values below come from article PMC3469775 (Journal of medicinal chemistry, 2012).

This assay concerns the target T1, human placental aromatase (Homo sapiens, UniProt P11511).
T1 sequence (P11511 1-503): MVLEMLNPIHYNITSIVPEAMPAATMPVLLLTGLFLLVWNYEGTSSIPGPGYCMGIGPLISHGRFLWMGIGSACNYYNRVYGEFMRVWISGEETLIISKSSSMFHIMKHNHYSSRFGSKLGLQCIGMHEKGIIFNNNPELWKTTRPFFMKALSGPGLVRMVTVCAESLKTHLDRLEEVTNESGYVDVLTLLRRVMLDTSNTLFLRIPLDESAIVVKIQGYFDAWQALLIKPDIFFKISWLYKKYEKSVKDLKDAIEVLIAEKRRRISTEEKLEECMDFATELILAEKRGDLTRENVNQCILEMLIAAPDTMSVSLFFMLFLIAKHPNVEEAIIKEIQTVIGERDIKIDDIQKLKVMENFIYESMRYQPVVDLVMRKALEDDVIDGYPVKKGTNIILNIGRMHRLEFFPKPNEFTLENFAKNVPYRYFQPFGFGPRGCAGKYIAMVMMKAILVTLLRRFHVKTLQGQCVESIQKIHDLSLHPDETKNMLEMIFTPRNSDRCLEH
Put plainly: Inhibition of purified human placental aromatase. To be noted: for fold less potent than the AIs (IC50): compared with the AIs; for IC50 (in words): purified placental aromatase. It is filed as biochemical.

Turning to `CO[C@@H]1C[C@@H]2[C@H](CC[C@]3(C)C(=O)CC[C@@H]23)[C@@]2(C)C=CC(=O)C=C12` [Compound 2, (6R,8R,9S,10R,13S,14S)-6-Methoxy-10,13-dimethyl-7,8,9,10,11,12,13,14,15,16-decahydro-3H-cyclopenta[a]-phenanthrene-3,17(6H)-dione], the “fold less potent than the AIs (IC50)” value is recorded as “about 1000 fold” and the “IC50 (in words)” value is “several micromolar”.

Take `CCO[C@@H]1C[C@@H]2[C@H](CC[C@]3(C)C(=O)CC[C@@H]23)[C@@]2(C)C=CC(=O)C=C12` [Compound 3, (6R,8R,9S,10R,13S,14S)-6-Ethoxy-10,13-dimethyl-7,8,9,10,11,12,13,14,15,16-decahydro-3H-cyclopenta[a]-phenanthrene-3,17(6H)-dione]: the “fold less potent than the AIs (IC50)” value is recorded as “about 1000 fold” and the “IC50 (in words)” value was “several micromolar”.

In the case of `CC#CCO[C@@H]1C[C@@H]2[C@H](CC[C@]3(C)C(=O)CC[C@@H]23)[C@@]2(C)C=CC(=O)C=C12` [Compound 4, (6R,8R,9S,10R,13S,14S)-6-(But-2-ynyloxy)-10,13-dimethyl-7,8,9,10,11,12,13,14,15,16-decahydro-3H-cyclopenta[a]-phenanthrene-3,17(6H)-dione], the inhibition (in general, the percentage by which the read-out fell short of the control) at 300 µM (read-out: inhibition of the enzyme activity) was 93%.
